According to PMC10997755, “Discovery of a small-molecule inhibitor that traps Polθ on DNA and synergizes with PARP inhibitors” (Nature Communications, 2024):
Where “and” joins values, the source holds several entries; their conditions need not be identical. Identical values can stand only once.

Key:
Brca1^CC/CC MEFs = assay: Clonogenic assay; format: cell-based, mouse; conditions: for pooled Average (normalized) / Normalized: MEF CC; for pooled Average (normalized): pooled average of 3 experiments; for Normalized: single experiments 1-3, 0 micro M = 100; for survival relative to 0 uM / survival relative to 0 uM, mean of the four experiments: cc; for survival relative to 0 uM: 150 cells/well, experiments 2023-04-07 and 2023-04-13; for survival relative to 0 uM, mean of the four experiments: last block without head (mean of 4)
Experimental: (§1) Cells were plated on six or twelve or twenty-four well plates. In six well plate, 1000 cells/ well of BRCA2 -/-, BRCA1 -/-, PALB2 mut and 500 cells/ well of wildtype pair was plated; In twelve well plate, 600 cells/ well of BRCA2 -/-, BRCA1 -/-, PALB2 mut and 400 cells/ well of wildtype pair was plated; In twenty-four well plate, 500 cells/ well of BRCA2 -/-, BRCA1 -/-, PALB2 mut and 300 cells/ well of wildtype pair was plated. […] The medium was replaced every 2 days until the colonies were ready for staining in 10–12 days. For staining: Medium was removed from plates, and cells were rinsed with PBS. Fixation was carried out with—Water: Ethanol: Acetic acid (5:4:1) for 30 min followed by staining of colonies with 0.5% crystal violet in Water: Ethanol (3:2) for 2 h at room temperature. The plates were rinsed with water and left for drying overnight at room temperature. Colonies were then counted and IC50 was calculated using results from 3 or more independent experiments. Response curves are shown as mean colony formation +/- S.E.M.

Brca1-WT MEFs = assay: Clonogenic assay; format: cell-based, mouse; conditions: for pooled Average (normalized) / Normalized: MEF WT; for pooled Average (normalized): pooled average of 3 experiments; for Normalized: single experiments 1-3, 0 micro M = 100; for survival relative to 0 uM / survival relative to 0 uM, mean of the four experiments: WT; for survival relative to 0 uM: experiments 2023-04-07 and 2023-04-13; for survival relative to 0 uM, mean of the four experiments: last block without head (mean of 4)
Experimental: as §1

CN(C(=O)Oc1c(N2CCN(CCO)C2=O)cc(C(F)(F)F)cc1C(F)(F)F)c1ccc(F)cc1 [RTx-161]
pooled Average (normalized) (Brca1^CC/CC MEFs; RTX-161 2.5 micro M): 50.51
Normalized (Brca1^CC/CC MEFs; RTX-161 2.5 micro M): 61.5322 and 50 and 40
Normalized (Brca1^CC/CC MEFs; RTX-161 5 micro M): 48.9756 and 28.3333 and 33.3333
pooled Average (normalized) (Brca1^CC/CC MEFs; RTX-161 10 micro M): 33.4
pooled Average (normalized) (Brca1^CC/CC MEFs; RTX-161 20 micro M): 18.83
survival relative to 0 uM (Brca1^CC/CC MEFs; RTx-161 1.25 uM): 84.85% and 90.38%
survival relative to 0 uM (Brca1^CC/CC MEFs; RTx-161 2.5 uM): 72.73% and 53.85%
survival relative to 0 uM (Brca1^CC/CC MEFs; RTx-161 5 uM): 60.61% and 50.00%
survival relative to 0 uM (Brca1^CC/CC MEFs; RTx-161 10 uM): 51.52% and 57.69%
survival relative to 0 uM (Brca1^CC/CC MEFs; RTx-161 20 uM): 39.39% and 48.08%
survival relative to 0 uM, mean of the four experiments (Brca1^CC/CC MEFs; RTx-161 1.25 uM): 86.23%
survival relative to 0 uM, mean of the four experiments (Brca1^CC/CC MEFs; RTx-161 2.5 uM): 67.71%
survival relative to 0 uM, mean of the four experiments (Brca1^CC/CC MEFs; RTx-161 5 uM): 56.39%
survival relative to 0 uM, mean of the four experiments (Brca1^CC/CC MEFs; RTx-161 10 uM): 54.03%
survival relative to 0 uM, mean of the four experiments (Brca1^CC/CC MEFs; RTx-161 20 uM): 47.47%
selective killing of Brca1^cc/cc MEFs (Brca1^CC/CC MEFs; versus Brca1-WT MEFs): selective killing
pooled Average (normalized) (Brca1-WT MEFs; RTX-161 2.5 micro M): 86.6767
Normalized (Brca1-WT MEFs; RTX-161 2.5 micro M): 94.0299 and 78.7879 and 87.2314
pooled Average (normalized) (Brca1-WT MEFs; RTX-161 5 micro M): 84.2267
Normalized (Brca1-WT MEFs; RTX-161 5 micro M): 88.0597 and 81.8182 and 82.8237
pooled Average (normalized) (Brca1-WT MEFs; RTX-161 10 micro M): 87.7867
Normalized (Brca1-WT MEFs; RTX-161 10 micro M): 100 and 72.7273 and 90.6469
pooled Average (normalized) (Brca1-WT MEFs; RTX-161 20 micro M): 78.36
Normalized (Brca1-WT MEFs; RTX-161 20 micro M): 65.6716 and 68.1818 and 101.237
survival relative to 0 uM (Brca1-WT MEFs; 150 cells/well, RTx-161 1.25 uM): 95.92% and 83.78%
survival relative to 0 uM (Brca1-WT MEFs; 150 cells/well, RTx-161 2.5 uM): 108.16% and 89.19%
survival relative to 0 uM (Brca1-WT MEFs; 150 cells/well, RTx-161 5 uM): 104.08% and 81.08%
survival relative to 0 uM (Brca1-WT MEFs; 150 cells/well, RTx-161 10 uM): 102.04% and 78.38%
survival relative to 0 uM (Brca1-WT MEFs; 150 cells/well, RTx-161 20 uM): 87.76% and 86.49%
survival relative to 0 uM (Brca1-WT MEFs; 300 cells/well, RTx-161 1.25 uM): 109.62% and 92.19%
survival relative to 0 uM (Brca1-WT MEFs; 300 cells/well, RTx-161 2.5 uM): 88.46% and 93.75%
survival relative to 0 uM (Brca1-WT MEFs; 300 cells/well, RTx-161 5 uM): 92.31% and 106.25%
survival relative to 0 uM (Brca1-WT MEFs; 300 cells/well, RTx-161 10 uM): 96.15% and 100.00%
survival relative to 0 uM (Brca1-WT MEFs; 300 cells/well, RTx-161 20 uM): 103.85% and 96.88%
survival relative to 0 uM, mean of the four experiments (Brca1-WT MEFs; RTx-161 1.25 uM): 95.38%
survival relative to 0 uM, mean of the four experiments (Brca1-WT MEFs; RTx-161 2.5 uM): 94.89%
survival relative to 0 uM, mean of the four experiments (Brca1-WT MEFs; RTx-161 5 uM): 95.93%
survival relative to 0 uM, mean of the four experiments (Brca1-WT MEFs; RTx-161 10 uM): 94.14%
survival relative to 0 uM, mean of the four experiments (Brca1-WT MEFs; RTx-161 20 uM): 93.74%
